Reference: patent publication US5506256A, “Proline derivatives possessing prolyl endopeptidase-inhibitory activity” (Yoshitomi Pharmaceutical Industries, Ltd., priority 1990, dated 1996)

Assays:
cathepsin B = biological target: T1, cathepsin B (Bos taurus, UniProt P07688); test: Determination of cathepsin B-inhibitory activity; format: biochemical, bovine; conditions: read-out: inhibition rate, cathepsin B
T1 construct: purchased Sigma; host or cells: bovine spleen
Description: (§1) The methods for the measurement of inhibitory activities against various proteases and the method for calculating the inhibition rate are as follows.
Determination of cathepsin B-inhibitory activity
Similarly, by following the procedure mentioned above, but employing a 100 mM sodium phosphate buffer (pH 6.0; containing 1.33 mM EDTA Na2) as a buffer for measurement, a 0.02 μM solution of cathepsin B (derived from bovine spleen, Sigma) in the same buffer as an enzyme solution and a 200 μM solution of 7-(N-benzyloxycarbonyl-phenylaranyl-arginyl)-4-methylcoumarinamide (Peptide Institute, Inc.) in the same buffer as a substrate solution, each fluorescence (f1, f2 and f3) was determined, respectively.
(§2) Using the fluorescence x1, x2 and x3 measured in the abovementioned manner, the inhibitory rate against various proteases was calculated by the following formula where x stands for b, c, d, e or f: [formula]

trypsin = biological target: T2, trypsin (Bos taurus, UniProt P00760); test: Determination of trypsin-inhibitory activity; format: biochemical, bovine; conditions: read-out: inhibition rate, trypsin
T2 construct: purchased Sigma; host or cells: bovine pancreas
T2 sequence (P00760 24-246): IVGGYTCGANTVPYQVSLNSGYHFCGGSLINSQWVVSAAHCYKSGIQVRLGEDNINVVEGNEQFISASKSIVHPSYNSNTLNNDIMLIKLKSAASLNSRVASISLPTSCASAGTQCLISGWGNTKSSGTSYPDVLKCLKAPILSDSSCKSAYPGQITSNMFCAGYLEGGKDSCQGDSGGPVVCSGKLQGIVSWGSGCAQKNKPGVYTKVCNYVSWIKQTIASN
Description: as §1
Determination of trypsin-inhibitory activity
In the present invention, a 50 mM Tris-HCl buffer (pH 8.0) was employed as a buffer for measurement.
To a mixture of the above-mentioned buffer (850 μl), a solution of the compounds of the present invention in the same buffer (50 μl) and a 0.02 μM solution of trypsin (derived from bovine pancreas, Sigma) in the same buffer (50 μl) was added a 200 μM solution of 7-(prolyl-phenylaranyl-arginyl)-4-methylcoumarinamide (Peptide Institute, Inc.) in the same buffer (50 μl),and the mixture was incubated at 30° C. for 1 hour. The reaction mixture was immersed in ice (0° C.) to terminate the reaction, and the fluorescence (b1) was determined 1 hour later (excitation at 370 nm and emission at 440 nm). Concurrently, there were conducted the experiment wherein, in the system above, the trypsin solution was substituted for a buffer alone, and the experiment wherein the solution of the compounds of the present invention was substituted for a buffer above. Each fluorescence (b2 and b3) was determined respectively.
as §2

prolyl endopeptidase = biological target: T3, prolyl endopeptidase (Rattus norvegicus, UniProt O70196); test: Prolyl endopeptidase-inhibitory activity; format: biochemical; conditions: for inhibition at 1 µM / inhibition at 0.1 µM: read-out: inhibition rate, prolyl endopeptidase; for IC50: prolyl endopeptidase extracted from rat brain, pH 7.0, 30° C., read-out: IC50
T3 construct: prolyl endopeptidase extracted from rat brain; from tissue; host or cells: rat brain
T3 sequence (O70196 whole entry): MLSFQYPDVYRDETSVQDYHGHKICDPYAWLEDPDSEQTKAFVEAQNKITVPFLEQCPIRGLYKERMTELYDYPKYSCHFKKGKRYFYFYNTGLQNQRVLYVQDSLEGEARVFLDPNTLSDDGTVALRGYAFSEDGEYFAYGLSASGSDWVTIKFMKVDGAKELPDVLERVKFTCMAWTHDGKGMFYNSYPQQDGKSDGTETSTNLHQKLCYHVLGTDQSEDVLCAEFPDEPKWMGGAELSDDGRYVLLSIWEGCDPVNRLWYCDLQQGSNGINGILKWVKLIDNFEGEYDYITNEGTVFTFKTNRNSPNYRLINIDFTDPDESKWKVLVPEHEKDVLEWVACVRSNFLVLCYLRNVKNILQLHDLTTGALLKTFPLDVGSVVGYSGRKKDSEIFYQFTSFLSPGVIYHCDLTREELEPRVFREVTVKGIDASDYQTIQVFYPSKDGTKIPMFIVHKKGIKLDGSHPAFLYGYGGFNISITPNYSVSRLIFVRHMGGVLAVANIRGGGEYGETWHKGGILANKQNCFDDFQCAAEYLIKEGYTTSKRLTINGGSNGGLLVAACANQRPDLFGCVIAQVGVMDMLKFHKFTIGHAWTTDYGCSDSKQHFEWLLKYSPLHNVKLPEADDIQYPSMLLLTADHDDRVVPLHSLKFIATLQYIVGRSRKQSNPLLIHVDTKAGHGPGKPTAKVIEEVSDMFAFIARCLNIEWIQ
Description: Prolyl endopeptidase-inhibitory activity
A mixture of a 0.1M potassium sodium phosphate buffer (pH 7.0) (2675 μl), a solution of the compounds of the present invention in a 0.1M potassium sodium phosphate buffer (pH 7.0) (100 μl) and a solution of prolyl endopeptidase extracted from rat brain in a 25 mM sodium phosphate buffer (100 μl) [123 unit/1, pH 6.8, containing 1 mM dithiothreitol and 0.5 mM EDTA, prepared by the method described in J. Neurochem., 35, 527 (1980)]was preincubated at 30° C. for 30 minutes. Thereto was added a 0.2 mM solution of 7-(N-succinyl-glycyl-prolyl)-4-methylcoumarinamide (Peptide Institute, INC.) in a 0.1M potassium sodium phosphate buffer (pH 7.0) (125 μl), and the mixture was incubated at 30° C. for 1 hour. The reaction mixture was immersed in ice (0° C.) to terminate the reaction, and the fluorescence (a1) was determined ten minutes later (excitation at 370 nm and emission at 440 nm). Concurrently, there were conducted the experiment wherein, in the above system, the prolyl endopeptidase solution was substituted for a 25 mM sodium phosphate buffer (pH 6.8, containing 1 mM dithiothreitol and 0.5 mM EDTA) and the experiment wherein the solution of the compounds of the present invention was substituted for a 0.1M potassium sodium phosphate buffer (pH 7.0). Each fluorescence (a2 and a3) was determined respectively [See Tanpakushitsu Kakusan Koso, 29, 127 (1984)]. The prolyl endopeptidase-inhibition rate was calculated by the following formula, and IC50, a concentration of a compound producing 50% inhibition, was estimated by semilogarithmic graph paper. [formula] […]

chymotrypsin = biological target: T4, chymotrypsin (Bos taurus, UniProt P00766); test: Determination of chymotrypsin-inhibitory activity; format: biochemical, bovine; conditions: read-out: inhibition rate, chymotrypsin
T4 construct: purchased Sigma; host or cells: bovine pancreas
Description: as §1
Determination of chymotrypsin-inhibitory activity
Similarly, by following the procedure mentioned above, but employing a 50 mM Tris-HCl buffer (pH 8.0) as a buffer for measurement, a 0.2 μM solution of chymotrypsin (derived from bovine pancreas, Sigma) in the same buffer as an enzyme solution and a […] solution of 7-(N-succinyl-leucyl-leucyl-valyl-tyrosyl)-4-methylcoumarinamide (Peptide Institute, Inc.) in the same buffer as a substrate solution, each fluorescence (c1, c2 and c3) was determined, respectively.
as §2

elastase = biological target: T5, elastase (Sus scrofa, UniProt P00772); test: Determination of elastase-inhibitory activity; format: biochemical, swine; conditions: read-out: inhibition rate, elastase
T5 construct: purchased Sigma; host or cells: swine pancreas
T5 sequence (P00772 27-266): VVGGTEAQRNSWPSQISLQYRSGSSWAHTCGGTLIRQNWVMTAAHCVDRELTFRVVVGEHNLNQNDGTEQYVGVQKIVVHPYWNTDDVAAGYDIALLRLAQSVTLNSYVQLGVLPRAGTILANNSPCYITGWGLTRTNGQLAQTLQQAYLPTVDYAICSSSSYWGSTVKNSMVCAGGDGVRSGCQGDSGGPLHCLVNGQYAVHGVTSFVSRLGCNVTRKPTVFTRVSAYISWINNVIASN
Description: as §1
Determination of elastase-inhibitory activity
Similarly, by following the procedure mentioned above, but employing a 1 mM Tris-HCl buffer (pH 8.5) as a buffer for measurement, a 0.2 μM solution of elastase (derived from swine pancreas, Sigma) in the same buffer as an enzyme solution and a 200 μM solution of 7-(N-succinyl-aranyl-prolyl-aranyl)-4-methylcoumarinamide (Peptide Institute, Inc.) in the same buffer as a substrate solution, each fluorescence (e1, e2 and e3) was determined, respectively.
as §2

leucine aminopeptidase = test: Determination of leucine aminopeptidase-inhibitory activity; format: biochemical, swine; design: unit not given here
Description: as §1
Determination of leucine aminopeptidase-inhibitory activity
Similarly, by following the procedure mentioned above, but employing a 50 mM Tris-HCl buffer (pH 8.0) as a buffer for measurement, a […] solution of leucine aminopeptidase (derived from swine kidney, Sigma) in the same buffer as an enzyme solution and a 200 μM solution of 7-leucyl-4-methyl-coumarinamide (Peptide Institute, Inc.) in the same buffer as a substrate solution, each fluorescence (d1, d2 and d3) was determined, respectively.
as §2

O=C(COc1ccccc1)[C@@H]1CCCN1C(=O)[C@@H]1CCCN1C(=O)NCc1ccccc1 [Compound 21, (2S)-1-(N-Benzylaminocarbonyl-L-prolyl)-2-(phenoxyacetyl)-pyrrolidine]
inhibition at 1 µM (cathepsin B): 0% | inhibition at 1 µM (trypsin): 0% | inhibition at 1 µM (prolyl endopeptidase): 99% | IC50 (prolyl endopeptidase): 15 nM | inhibition at 1 µM (chymotrypsin): 0% | inhibition at 1 µM (elastase): 0% | inhibition rate, leucine aminopeptidase (leucine aminopeptidase; 1 μM): 0

COc1ccc(OCC(=O)[C@@H]2CCCN2C(=O)[C@@H]2CCCN2C(=O)NCc2ccccc2)cc1 [Compound 22, (2S)-1-(N-Benzylaminocarbonyl-L-prolyl)-2-(4-methoxyphenoxyacetyl)pyrrolidine]
inhibition at 1 µM (cathepsin B): 0% | inhibition at 1 µM (trypsin): 0% | inhibition at 1 µM (prolyl endopeptidase): 97% | IC50 (prolyl endopeptidase): 25 nM | inhibition at 1 µM (chymotrypsin): 0% | inhibition at 1 µM (elastase): 0% | inhibition rate, leucine aminopeptidase (leucine aminopeptidase; 1 μM): 0

COc1ccc([S@@+]([O-])CC(=O)[C@@H]2CCCN2C(=O)[C@@H]2CCCN2C(=O)NCc2ccccc2)cc1 [Compound 23, (2S)-1-(N-Benzylaminocarbonyl-L-prolyl)-2-{[(S)-4-methoxyphenylsulfinyl]acetyl}pyrrolidine]
inhibition at 1 µM (cathepsin B): 0% | inhibition at 1 µM (trypsin): 0% | inhibition at 1 µM (prolyl endopeptidase): 99% | IC50 (prolyl endopeptidase): 15 nM | inhibition at 1 µM (chymotrypsin): 0% | inhibition at 1 µM (elastase): 0% | inhibition rate, leucine aminopeptidase (leucine aminopeptidase; 1 μM): 0

COc1ccc(CNC(=O)N2CCC[C@H]2C(=O)N2CCC[C@H]2C(=O)C[S@+]([O-])c2ccc(OC)cc2)cc1 [Compound 24, (2S)-1-[N-(4-Methoxybenzylaminocarbonyl)-L-prolyl]-2-{[(S)-4-methoxyphenylsulfinyl]acetyl}pyrrolidine]
inhibition at 0.1 µM (cathepsin B): 0% | inhibition at 0.1 µM (trypsin): 0% | inhibition at 0.1 µM (prolyl endopeptidase): 99% | IC50 (prolyl endopeptidase): 0.5 nM | inhibition at 0.1 µM (chymotrypsin): 0% | inhibition at 0.1 µM (elastase): 0% | inhibition rate, leucine aminopeptidase (leucine aminopeptidase; 0.1 μM): 0

COc1ccc(CNC(=O)N2CCC[C@H]2C(=O)N2CCC[C@H]2C(=O)COc2ccc(OC)cc2)cc1 [Compound 25, (2S)-1-[N-(4-Methoxybenzylaminocarbonyl)-L-prolyl]-2-(4-methoxyphenoxyacetyl)pyrrolidine]
inhibition at 0.1 µM (cathepsin B): 0% | inhibition at 0.1 µM (trypsin): 0% | inhibition at 0.1 µM (prolyl endopeptidase): 97% | IC50 (prolyl endopeptidase): 2.5 nM | inhibition at 0.1 µM (chymotrypsin): 0% | inhibition at 0.1 µM (elastase): 0% | inhibition rate, leucine aminopeptidase (leucine aminopeptidase; 0.1 μM): 0

O=C(COc1ccc(Cl)cc1)[C@@H]1CCCN1C(=O)[C@@H]1CCCN1C(=O)CCc1ccccc1 [Compound 26, (2S)-2-(4-Chlorophenoxyacetyl)-1-[N-(3-phenylpropionyl)-L-prolyl]pyrrolidine]
inhibition at 1 µM (cathepsin B): 0% | inhibition at 1 µM (trypsin): 0% | inhibition at 1 µM (prolyl endopeptidase): 99% | IC50 (prolyl endopeptidase): 4.5 nM | inhibition at 1 µM (chymotrypsin): 0% | inhibition at 1 µM (elastase): 0% | inhibition rate, leucine aminopeptidase (leucine aminopeptidase; 1 μM): 0

O=C(COc1ccc(O)cc1)[C@@H]1CCCN1C(=O)[C@@H]1CCCN1C(=O)CCc1ccccc1 [Compound 27, (2S)-2-(4-Hydroxyphenoxyacetyl)-l-[N-(3-phenylpropionyl)-L-prolyl]pyrrolidine]
inhibition at 0.1 µM (cathepsin B): 0% | inhibition at 0.1 µM (trypsin): 0% | inhibition at 0.1 µM (prolyl endopeptidase): 96% | IC50 (prolyl endopeptidase): 2.5 nM | inhibition at 0.1 µM (chymotrypsin): 0% | inhibition at 0.1 µM (elastase): 0% | inhibition rate, leucine aminopeptidase (leucine aminopeptidase; 0.1 μM): 0

O=C(COc1ccc(Cl)cc1)[C@@H]1CCCN1C(=O)[C@@H]1CCCN1C(=O)NCc1ccc(Cl)cc1 [Compound 28, (2S)-1-[N-(4-Chlorobenzylaminocarbonyl)-L-prolyl]-2-(4-chlorophenoxyacetyl)pyrrolidine]
inhibition at 0.1 µM (cathepsin B): 0% | inhibition at 0.1 µM (trypsin): 0% | inhibition at 0.1 µM (prolyl endopeptidase): 97% | IC50 (prolyl endopeptidase): 15 nM | inhibition at 0.1 µM (chymotrypsin): 0% | inhibition at 0.1 µM (elastase): 0% | inhibition rate, leucine aminopeptidase (leucine aminopeptidase; 0.1 μM): 0

O=C(COc1ccc(F)cc1)[C@@H]1CCCN1C(=O)[C@@H]1CCCN1C(=O)NCc1ccc(F)cc1 [Compound 29, (2S)-1-[N-(4-Fluorobenzylaminocarbonyl)-L-prolyl]-2-(4-fluorophenoxyacetyl)pyrrolidine]
inhibition at 0.1 µM (cathepsin B): 0% | inhibition at 0.1 µM (trypsin): 0% | inhibition at 0.1 µM (prolyl endopeptidase): 99% | IC50 (prolyl endopeptidase): 0.1 nM | inhibition at 0.1 µM (chymotrypsin): 0% | inhibition at 0.1 µM (elastase): 0% | inhibition rate, leucine aminopeptidase (leucine aminopeptidase; 0.1 μM): 0

O=C(COc1ccccc1)[C@@H]1CCCN1C(=O)[C@@H]1CCCN1C(=O)NCc1ccc(Cl)cc1 [Compound 30, (2S)-1-[N-(4-Chlorobenzylaminocarbonyl)-L-prolyl]-2-(phenoxyacetyl)pyrrolidine]
inhibition at 0.1 µM (cathepsin B): 0% | inhibition at 0.1 µM (trypsin): 0% | inhibition at 0.1 µM (prolyl endopeptidase): 99% | IC50 (prolyl endopeptidase): 0.6 nM | inhibition at 0.1 µM (chymotrypsin): 0% | inhibition at 0.1 µM (elastase): 0% | inhibition rate, leucine aminopeptidase (leucine aminopeptidase; 0.1 μM): 0

CCCCCCCC(=O)N1CCC[C@H]1C(=O)N1CCC[C@H]1C(=O)COc1ccccc1 [Compound 31, (2S)-1-(N-Octanoyl-L-prolyl)-2-(phenoxyacetyl)pyrrolidine]
inhibition at 0.1 µM (cathepsin B): 0% | inhibition at 0.1 µM (trypsin): 0% | inhibition at 0.1 µM (prolyl endopeptidase): 97% | IC50 (prolyl endopeptidase): 4.5 nM | inhibition at 0.1 µM (chymotrypsin): 0% | inhibition at 0.1 µM (elastase): 0% | inhibition rate, leucine aminopeptidase (leucine aminopeptidase; 0.1 μM): 0

O=C(COCc1ccccc1)[C@@H]1CCCN1C(=O)[C@@H]1CCCN1C(=O)NCc1ccccc1 [Compound 32]
inhibition at 0.1 µM (cathepsin B): 0% | inhibition at 0.1 µM (trypsin): 0% | inhibition at 0.1 µM (prolyl endopeptidase): 96% | IC50 (prolyl endopeptidase): 1 nM | inhibition at 0.1 µM (chymotrypsin): 0% | inhibition at 0.1 µM (elastase): 0% | inhibition rate, leucine aminopeptidase (leucine aminopeptidase; 0.1 μM): 0
